This assay addresses Tubulin (Homo sapiens) (UniProt P68371+Q9H4B7+P0DPH7+P68366+Q13509+Q71U36+P04350+Q3ZCM7+P07437+P68363+Q9BQE3+Q6PEY2+Q13885+Q9BVA1+Q9BUF5). Nature of the assay: Binding affinity to microtubules, activity expressed as ID50 of compound/ID50 of paclitaxel. It is filed as protein-complex assay.

Each structure is given as a SMILES string.

On to `CC(=O)O[C@H]1C(=O)[C@@]2(C)[C@H]([C@H](OC(=O)c3ccccc3)[C@]3(O)C[C@H](OC(=O)[C@H](O)[C@@H](NC(=O)c4ccoc4)c4ccccc4)C(C)=C1C3(C)C)[C@]1(OC(C)=O)CO[C@@H]1C[C@@H]2O`, for which the ID50 ratio stood at 0.4. For `CC(=O)O[C@@]12CO[C@@H]1C[C@H](O)[C@@]1(C)C(=O)[C@H](O)C3=C(C)[C@@H](OC(=O)[C@H](O)[C@@H](NC(=O)OC(C)(C)C)c4ccccc4)C[C@@](O)([C@@H](OC(=O)c4ccccc4)[C@H]21)C3(C)C` (stereo in doubt; 40) the value was 0.5. `CC(=O)O[C@@]12CO[C@@H]1C[C@H](O)[C@@]1(C)C(=O)[C@H](O)C3=C(C)[C@@H](OC(=O)C[C@@H](O)[C@@H](NC(=O)c4ccccc4)c4ccccc4)C[C@@](O)([C@@H](OC(=O)c4ccccc4)[C@H]21)C3(C)C`: the ID50 ratio is more than 27. For `CC(=O)O[C@H]1C(=O)[C@@]2(C)[C@H]([C@H](OC(=O)c3ccccc3)[C@]3(O)C[C@H](OC(=O)[C@H](O)[C@@H](NC(=O)OCc4ccccc4)c4ccccc4)C(C)=C1C3(C)C)[C@]1(OC(C)=O)CO[C@@H]1C[C@@H]2O` the value was 3.3; for `CC(=O)O[C@H]1C(=O)[C@@]2(C)[C@H]([C@H](OC(=O)c3ccccc3)[C@]3(O)C[C@H](OC(=O)[C@H](O)[C@@H](NC(=O)c4cccc(N(C)C)c4)c4ccccc4)C(C)=C1C3(C)C)[C@]1(OC(C)=O)CO[C@@H]1C[C@@H]2O`, 1.4; for `CC(=O)O[C@H]1C(=O)[C@@]2(C)[C@H]([C@H](OC(=O)c3ccccc3)[C@]3(O)C[C@H](OC(=O)[C@H](O)CNC(=O)c4ccccc4)C(C)=C1C3(C)C)[C@]1(OC(C)=O)CO[C@@H]1C[C@@H]2O`, 5.6.

As for `CC(=O)O[C@H]1C(=O)[C@@]2(C)[C@H]([C@H](OC(=O)c3ccccc3)[C@]3(O)C[C@H](OC(=O)[C@H](O)[C@@H](NC(=O)/C(C)=N/O)c4ccccc4)C(C)=C1C3(C)C)[C@]1(OC(C)=O)CO[C@@H]1C[C@@H]2O`, the ID50 ratio amounted to 3.5. Under `CCC(=O)O[C@H]1C[C@@]2(O)[C@@H](OC(=O)c3ccccc3)[C@@H]3[C@]4(OC(C)=O)CO[C@@H]4C[C@H](O)[C@@]3(C)C(=O)[C@H](OC(C)=O)C(=C1C)C2(C)C` stands 52; under `CC(=O)O[C@H]1C(=O)[C@@]2(C)[C@H]([C@H](OC(=O)c3ccccc3)[C@]3(O)C[C@H](OC(=O)C[C@@H](NC(=O)OC(C)(C)C)c4ccccc4)C(C)=C1C3(C)C)[C@]1(OC(C)=O)CO[C@@H]1C[C@@H]2O`, 4.1. For `CC(=O)O[C@H]1C(=O)[C@@]2(C)[C@H]([C@H](OC(=O)c3ccccc3)[C@]3(O)C[C@H](OC(=O)[C@H](O)[C@@H](NC(=O)c4ccccc4)c4ccncc4)C(C)=C1C3(C)C)[C@]1(OC(C)=O)CO[C@@H]1C[C@@H]2O` the value was 0.4; for `CC(=O)O[C@H]1C(=O)[C@@]2(C)[C@H]([C@H](OC(=O)c3ccccc3)[C@]3(O)C[C@H](OC(=O)C[C@H](NC(=O)c4ccccc4)c4ccccc4)C(C)=C1C3(C)C)[C@]1(OC(C)=O)CO[C@@H]1C[C@@H]2O`, 21.2; for `C/C=C(\C)C(=O)N[C@@H](c1ccccc1)[C@@H](O)C(=O)O[C@H]1C[C@@]2(O)[C@@H](OC(=O)c3ccccc3)[C@@H]3[C@]4(OC(C)=O)CO[C@@H]4C[C@H](O)[C@@]3(C)C(=O)[C@H](OC(C)=O)C(=C1C)C2(C)C`, 1.5.

With `CC(=O)O[C@@]12CO[C@@H]1C[C@H](O)[C@@]1(C)C(=O)[C@H](O)C3=C(C)[C@@H](OC(=O)C[C@@H](O)[C@@H](NC(=O)OC(C)(C)C)c4ccccc4)C[C@@](O)([C@@H](OC(=O)c4ccccc4)[C@H]21)C3(C)C`, the ID50 ratio was more than 27.

Regarding `CC(=O)O[C@H]1C(=O)[C@@]2(C)[C@H]([C@H](OC(=O)c3ccccc3)[C@]3(O)C[C@H](OC(=O)[C@H](O)[C@@H](NC(=O)OC(C)(C)C)c4ccco4)C(C)=C1C3(C)C)[C@]1(OC(C)=O)CO[C@@H]1C[C@@H]2O`, the ID50 ratio was 1.7. Under `CC(=O)O[C@H]1C(=O)[C@@]2(C)[C@H]([C@H](OC(=O)c3ccccc3)[C@]3(O)C[C@H](OC(=O)[C@@H](O)Cc4ccccc4)C(C)=C1C3(C)C)[C@]1(OC(C)=O)CO[C@@H]1C[C@@H]2O` stands 15.7. For `CC(=O)O[C@H]1C(=O)[C@]2(C)[C@@H](OC(=O)c3c(F)c(F)c(N=[N+]=[N-])c(F)c3F)C[C@H]3OC[C@@]3(OC(C)=O)[C@H]2[C@H](OC(=O)c2ccccc2)[C@]2(O)C[C@H](OC(=O)[C@H](O)[C@@H](NC(=O)c3ccccc3)c3ccccc3)C(C)=C1C2(C)C` the value was more than 22.4; for `CC(=O)O[C@H]1C(=O)[C@@]2(C)[C@H]([C@H](OC(=O)c3ccccc3)[C@]3(O)C[C@H](OC(=O)[C@H](O)[C@@H](NC(=O)c4ccccc4)c4ccc(Cl)c(Cl)c4)C(C)=C1C3(C)C)[C@]1(OC(C)=O)CO[C@@H]1C[C@@H]2O`, 7.1.

On to `CC(=O)O[C@H]1C(=O)[C@@]2(C)[C@H]([C@H](OC(=O)c3ccccc3)[C@]3(O)C[C@H](OC(=O)[C@@H](O)[C@H](NC(=O)c4ccccc4)c4ccccc4)C(C)=C1C3(C)C)[C@]1(OC(C)=O)CO[C@@H]1C[C@@H]2O`, for which the ID50 ratio amounted to 4.5.

As to `CC(=O)O[C@H]1C(=O)[C@]2(C)[C@@H](OC(C)=O)C[C@H]3OC[C@@]3(OC(C)=O)[C@H]2[C@H](OC(=O)c2ccccc2)[C@]2(O)C[C@H](OC(=O)[C@H](O)[C@@H](NC(=O)c3ccccc3)c3ccccc3)C(C)=C1C2(C)C`, the ID50 ratio was found to be 2. As to `CC(=O)O[C@@]12CO[C@@H]1C[C@H](O)[C@@]1(C)C(=O)CC3=C(C)[C@@H](OC(=O)[C@H](O)[C@@H](NC(=O)c4ccccc4)c4ccccc4)C[C@@](O)([C@@H](OC(=O)c4ccccc4)[C@H]21)C3(C)C` (stereo in doubt; 19), the ID50 ratio came out at 106. Regarding `CC(=O)O[C@H]1C(=O)[C@]2(C)[C@@H](OC(=O)c3ccc(N=[N+]=[N-])cc3)C[C@H]3OC[C@@]3(OC(C)=O)[C@H]2[C@H](OC(=O)c2ccccc2)[C@]2(O)C[C@H](OC(=O)[C@H](O)[C@@H](NC(=O)c3ccccc3)c3ccccc3)C(C)=C1C2(C)C`, the ID50 ratio came to 21.4. For `CC(=O)O[C@H]1C(=O)[C@@]2(C)[C@H]([C@H](OC(=O)c3ccccc3)[C@]3(O)C[C@H](OC(=O)[C@H](O)[C@@H](NC(=O)c4ccccc4C)c4ccccc4)C(C)=C1C3(C)C)[C@]1(OC(C)=O)CO[C@@H]1C[C@@H]2O` the value was 1.9. For `CC(=O)O[C@H]1C(=O)[C@@]2(C)[C@H]([C@H](OC(=O)c3ccccc3)[C@]3(O)C[C@H](OC(=O)[C@H](O)[C@@H](NC(=O)c4ccccc4)c4ccccn4)C(C)=C1C3(C)C)[C@]1(OC(C)=O)CO[C@@H]1C[C@@H]2O` the value was 0.7. Under `CC(=O)O[C@H]1C(=O)[C@@]2(C)[C@H]([C@H](OC(=O)c3ccccc3)[C@]3(O)C[C@H](OC(=O)[C@H](O)[C@@H](NC(=O)c4c(F)c(F)c(N=[N+]=[N-])c(F)c4F)c4ccccc4)C(C)=C1C3(C)C)[C@]1(OC(C)=O)CO[C@@H]1C[C@@H]2O` stands 4.6; under `CC(=O)O[C@H]1C(=O)[C@@]2(C)[C@H]([C@H](OC(=O)c3ccccc3)[C@]3(O)C[C@H](OC(=O)[C@H](O)Cc4ccccc4)C(C)=C1C3(C)C)[C@]1(OC(C)=O)CO[C@@H]1C[C@@H]2O`, 13.2.

Take `CC(=O)O[C@H]1C(=O)[C@@]2(C)[C@H]([C@H](OC(=O)c3ccccc3)[C@]3(O)C[C@H](OC(=O)[C@@H](C)O)C(C)=C1C3(C)C)[C@]1(OC(C)=O)CO[C@@H]1C[C@@H]2O`: the ID50 ratio stood at 5.6.

Values taken from ChEMBL document CHEMBL1127973, “A comparative molecular field analysis derived model of the binding of taxol analogues to microtubules” (Bioorg Med Chem Lett, 1994).
